From patent US9493522B2, “Discovery of candidate biomarkers of in vivo apoptosis by global profiling of caspase cleavage sites” (THE REGENTS OF THE UNIVERSITY OF CALIFORNIA, priority 2008, dated 2016)
Residues, ends and D or L forms follow the SMILES beside them. *: point of attachment. Cbz = O=C(OCc1ccccc1)*; CH2F = FC*

Columns and labels:
Jurkat cells [1] = experiment: Immunoblotting of caspase substrate proteolysis during apoptosis; type: cell-based, human
Procedure: Jurkat cells at a density of 1×10^6 cells/ml were treated with etoposide (50 μM) for 0, 2, 4, 8, 12, and 24 hours prior to harvesting. Harvested cells were pelleted at 2,000×g and 25° C. for 5 minutes, washed twice with phosphate buffered saline, and lysed at a concentration of 2×10^7 cells/ml in 1.0% SDS, phosphate buffered saline, 100 μM Z-VAD-FMK, 100 μM E-64, 1 mM PMSF, 1 mM AEBSF, 5 mM EDTA, and 10 mM sodium butyrate. Whole cell lysates were sonicated to shear genomic DNA, normalized to a protein concentration of approximately 2 mg/ml, as determined by BCA assay (Pierce). Cell lysates for each apoptotic timepoint were then analyzed by SDS-PAGE and Western blot. Mouse monoclonal anti-caspase-3 (#9668) and rabbit polyclonal anti-HDAC3 (#2632) antibodies were purchased from Cell Signaling Technology. Mouse monoclonal anti-DFF45 (#611036) antibody was purchased from BD Transduction Laboratories. Goat polyclonal anti-N-Cor (#sc-1611) and rabbit polyclonal anti-HDAC7 (#sc-11412) antibodies were purchased from Santa Cruz Biotechnology. Rabbit polyclonal anti-TBLR1 (#A300-408A), rabbit polyclonal anti-SHARP (#A301-119A), and rabbit polyclonal anti-RBBP7 (#A300-959A) antibodies were purchased from Bethyl Laboratories. Rabbit polyclonal anti-SMRTe (#06-891) antibody was purchased from Millipore. Western blots were imaged using SuperSignal West Femto Substrate (Pierce) with a Fluor Chem SP imager (Alpha Innotech). DNA fragmentation of whole cell DNA was analyzed by agarose gel with the Apoptotic DNA Ladder Kit (Roche).

Jurkat cells [2] = experiment: Subtiligase N-terminal labeling and LC/MS/MS degradomic analysis of apoptotic Jurkat cells; type: cell-based, human; conditions: Jurkat cells treated with etoposide (50 μM, 12 hours)
Procedure: Normal cells were harvested for experiments at a density of 1×10^6 cells/ml. For apoptotic samples, cells at a density of 1×10^6 cells/ml were treated with etoposide (50 μM) for 12 hours prior to harvesting. Harvested cells (0.1 to 1 billion) were pelleted at 2,000×g and 25° C. for 5 minutes, washed twice with phosphate buffered saline, and lysed at a typical concentration of 2×10^8 cells/ml in 1.0% TRITON X-100 detergent, 100 mM BICINE pH 8.0, 100 μM Z-VAD-FMK, 100 μM E-64, 1 mM PMSF, 1 mM AEBSF, and 5 mM EDTA. […] Clarified supernatant was immediately used in ligation reactions at a protein concentration of approximately 20 mg/ml, as determined by Bradford assay (Bio-Rad).
Subtiligase (1 μM), biotinylated peptide ester (1 mM), and DTT (2 mM) were added to either control or apoptotic cell lysate. Ligation reactions were typically left to proceed at room temperature for 60 minutes. Samples were then denatured by direct addition of solid guanidine hydrochloride to a final concentration of 6 M, reduced by addition of neutralized TCEP (2 mM), heated at 95° C. for 15 minutes, cooled to room temperature, and alkylated by addition of iodoacetamide (6 mM) and incubation at room temperature in the dark for 1 hour. […]

[3] = Jurkat cells, 50 μM etoposide, FIG. 5A

Row | Compound | Cleavage of representative substrates HDAC7, Ku80, RCOR2, TBLR1, and UBP36 in presence of caspase inhibitor (Jurkat cells [1]; etoposide-treated Jurkat cells, FIG. 5B) | Proteolysis of CCTδ, Ku80, LCOR, and RBBP7 (time course, immunoblot) (Jurkat cells [1]; [3]) | Proteolysis of HDAC6, HDAC7, N-CoR, RCOR2, SHARP, TBLR1, UBP5, and UBP36 (time course, immunoblot) (Jurkat cells [1]; [3]) | N-termini identified in apoptotic cells derived from P1 aspartate cleavages (Jurkat cells [2]; large-scale (2D LC/MS/MS) experiments) | N-termini identified in apoptotic cells derived from P1 aspartate cleavages (Jurkat cells [2]; small-scale (1D LC/MS/MS) experiments)
1 | COC(=O)C[C@H](NC(=O)[C@H](C)NC(=O)[C@@H](NC(=O)OCc1ccccc1)C(C)C)C(=O)CF [Z-VAD(OMe)-fmk] (Cbz-Val-Ala-Asp(OMe)-CH2F) | blocked |  |  |  | 
2 | COc1cc([C@@H]2c3cc4c(cc3[C@@H](O[C@@H]3O[C@@H]5CO[C@@H](C)O[C@H]5[C@H](O)[C@H]3O)[C@H]3COC(=O)[C@H]23)OCO4)cc(OC)c1O [etoposide] |  | partial cleavage | full cleavage | 43% | 43%
